# According to patent publication US20090124631A1, “Combination Therapy” (priority 2007, published 2009):
# Entries after “also recorded” stand apart in the source; their conditions may differ.
# Assays:
# [1] = system: tubulin acetylation in human bladder carcinoma T24 cells; assay: Cell-based ELISA for tubulin acetylation
# Protocol: Bladder carcinoma T24 cells were seeded in black plates with clear bottoms (Costar #3603) at 1×10^4 cells per well in a volume of 100 μl per well, and were allowed to settle for one day at 37° C. in a CO2 incubator. The cells were treated for 16 h with various concentrations of HDAC inhibitors. 3 h before the end of the treatment, Alamar Blue (BioSource) was added to monitor cell viability according to the manufacturer's instructions. At the end of the treatment time, Alamar Blue OD (at 570 nm and 600 nm) was recorded, then the cells were carefully washed in PBS, fixed in pre-chilled methanol for 10 min at −20° C., washed again twice in PBS, and blocked in PBS containing 0.1% Triton X-100 and 1% BSA for a minimum of 30 min. For H3 acetylation, rabbit-anti-acetyl-H3 (Upstate #06-599) was used as primary antibody at a dilution of 1:1000 for 45 min; the secondary antibody was HRP-coupled goat-anti-rabbit (Sigma #A-0545), used at 1:8000 for 45 min. For tubulin acetylation, the primary antibody was mouse anti-acetyl-tubulin (Sigma #T-6793, 1:2000, 45 min) while the secondary was HRP-coupled goat-anti-mouse antibody (Sigma #A-2304, 1:8000, 45 min). All antibodies were diluted in blocking buffer, and the cells were washed in blocking buffer following each antibody incubation. […] The fluorescent signal for acetylation was normalized by dividing with the viability data obtained from Alamar Blue. EC50 was defined as the concentration of compound which gave a signal half-way between the basal (untreated) level and the maximum level generated by high doses of the HDAC pan-inhibitor NVP-LAQ-824.
# [2] = system: VEGF expression in DU145 cells; assay: VEGF transcription in Du145 cells in vitro; type: cell-based, human; details: 24 hour treatment
# Protocol: Human prostate cancer Du145 cells were exposed to Cpd A or SAHA (3 microM) for 24 hours. Total RNA was collected by Isogen (Nippongene, Tokyo, Japan) and reverse-transcribed to cDNA by ExScript® RT reagent Kit (TAKARA, Kyoto, Japan). The expression level of bFGF mRNA was detected by ABI7700 analyzer using probe/primer pre-mixture reagent (ABI, Cat# Hs00266645_m1, CA, USA) and TaqMan® Universal PCR Master Mix (ABI, Cat# 430-4437) as described in the ABI's protocol. The expression level of VEGF mRNA was detected in a similar manner using the appropriate probe/primer reagents.
# [3] = system: co-cultured human endothelial cells; assay: Human multicellular angiogenesis model (AngioKit); type: cell-based; details: AngioKit, 30, 100 and 300 nM
# Protocol: Briefly, 24 well plates were seeded with cells on day 0 and medium was changed on days 3, 4, 7, 10 and 12. […] All AngioKits were then fixed and stained on day 14, using the CD31 Staining Kits according to the standard AngioKit procedure. Comparison of tubule development was conducted using the “AngioSys” image analysis system developed specifically for the analysis of images produced using the AngioKit. Four images taken from predetermined positions within each well were recorded. Each concentration of test compound therefore yielded […] for analysis in duplicate. Images were always taken from as close to the centre of each quadrant as possible. Four tubule parameters were measured: total tubule length, total tubule area, number of branch points and number of tubules formed. All statistical analyses were carried out using the Stat 100 programme from BIOSOFT Ltd. using ANOVA and Duncan's Multiple Comparison Test to measure differences between the test compounds with the untreated control values. Alpha was always 0.05 unless otherwise stipulated.
# [4] = system: anti-angiogenesis genes in colon adenocarcinoma HCT15 cells; assay: Microarray analysis of anti-angiogenesis genes in HCT15 cells; type: cell-based, human; details: 1 μM, 24 h
# Protocol: RNA labeling, microarray hybridization, scanning and analysis were performed by Genotypics (India). RNAs were labeled with either Cy3 or Cy5 using Agilent's optimized labeling kits and hybridized to Human whole genome 44K Oligo Microarray. Array chips were ordered from Agilent (Palo Alto, Calif.). Slides were scanned using a DNA microarry scanner from Agilent and the raw data was extracted using Agilent's image analysis tool (feature extraction software). Normalization and Statistical analysis were performed using GeneSpring software. Biological analysis was performed using Biointerpreter software.
# FIG. 4a indicates a list of selected genes with anti-angiogenesis function. The numbers indicate the fold induction in treated samples compared to non-treated samples (average of three biological replicates ±standard deviation).
# [5] = system: MT3 transcription in human myeloma RPMI-8226 cells; assay: MT3 transcription in RPMI-8226 cells, real time RT-PCR; type: cell-based; details: 24 hours
# Protocol: Total RNAs were extracted from cell pellets or from tumors using QiaShredder and RNeasy mini kit (Qiagen). 1 μg RNA was converted into cDNA using Expand RT enzyme (Roche) and Oligo(dT) primers (Invitrogen) in a 20 μl reaction volume. For quantitative real-time PCR, the primers used for MT3 were [NT] and [NT] and those for β-actin were [NT] and [NT]. Reactions with either pair of primers included an annealing temperature of 63.4° C. All real-time PCR reactions were performed on the MasterCycler ep Realplex (Eppendorf) using FastStart SYBRGreen Master (Roche).
# [6] = system: VEGF expression in A549 (NSCLC) xenografts; assay: VEGF expression in A549 xenografts; type: in vivo; details: 150 mg/kg, p.o., qdx3
# [7] = system: bFGF expression in A549 (NSCLC) xenografts; assay: bFGF expression in A549 xenografts; type: in vivo; details: 150 mg/kg, p.o., qdx3
# [8] = system: human H460 non-small cell lung tumor xenograft; assay: H460 xenograft, iv-iv combination with taxol; type: in vivo, mouse; details: H460, Compound A 40 mg/kg i.v. with taxol 60 mg/kg i.v., single dose day 1
# Protocol: Antitumor studies were done using human H460 non-small cell lung tumor xenograft model in male BALBc/A nude mice (from Japan Crea Inc., Japan). Male nude mice were used at age 8-10 weeks. Human carcinoma cells were injected subcutaneously in the animal flank and allowed to form solid tumors. Tumor fragments (about 2 mm^3 fragments) were then removed and implanted subcutaneously to the right flank of other animals. […] Tumor volumes and gross body weight of animals were monitored twice weekly for up to 15 days. Each experimental group contained 6 animals.
# [9] = system: MT3 transcription in human colon cancer HCT15 cells; assay: MT3 transcription in HCT15 cells, microarray analysis; type: cell-based; details: 1 uM
# Description: Total RNAs were extracted and RNA quality analysis was done using Agilent 2100 bioanalyzer and Agilent's RNA Labchip kits. RNAs were labeled with either Cy3 or Cy5 using Agilent's optimized labeling kits and hybridized to Human whole genome 44K Oligo Microarray (Agilent, Palo Alto, Calif.). Slides were scanned using DNA microarry scanner from Agilent and the raw data was extracted using Agilent's image analysis tool (feature extraction software). Normalization and statistical analysis were performed using GeneSpring software. Biological analysis was performed using Biointerpreter software.
Compound,tubulin acetylation [1],VEGF expression [2],tubule length [3],transcription of anti-angiogenesis genes [4],MT3 transcription [5],VEGF expression [6],bFGF expression [7],antitumor activity of taxol [8],MT3 transcription [9]
Nc1ccccc1NC(=O)c1ccc(CNc2nccc(-c3cccnc3)n2)cc1 [Compound A],but not tubulin acetylation,suppression,inhibits,affects several genes of the angiogenesis pathway; also recorded: induction,dose-dependent induction,suppression,suppression,Potentiation,–
Nc1ccc(-c2ccccc2)cc1NC(=O)c1ccc(N2CC[C@H](N)C2)cc1 [Compound D],–,–,–,–,–,–,–,–,induction
